Reference: patent US6737383B1, “Herbicidal oxadiazolidines” (priority 1999, dated 2004)

Assays:
Conditions in all cases: 0 to 100 scale, 0 no effect, 100 complete control
[1] = tested on: soybean; assay: Test C postemergence soybean; format: in vivo, Glycine max
Experimental: (§1) Compounds evaluated in this test were formulated in a non-phytotoxic solvent mixture which included a surfactant and applied to plants that were grown for various periods of time before treatment (postemergence application). A mixture of sandy loam soil and greenhouse potting mix in a 60:40 ratio was used for the postemergence test.
(§2) Plantings of these crops and weed species were adjusted to produce plants of appropriate size for the postemergence test. All plant species were grown using normal greenhouse practices. Crop and weed species include arrowleaf sida (Sida rhombifolia), barnyardgrass (Echinochloa crus-galli), cocklebur (Xanthium strumarium), common ragweed (Ambrosia elatior), corn (Zea mays), cotton (Gossypium hirsutum), eastern black nightshade (Solanum ptycanthum), fall panicum (Panicum dichotomiflorum), field bindweed (Convolvulus arvensis), giant foxtail (Setaria faberii), hairy beggarticks (Bidens pilosa), ivyleaf morningglory (Ipomoea hederacea), johnsongrass (Sorghum halepense), ladysthumb smartweed (Polygonum persicaria), lambsquarters (Chenopodium album), large crabgrass (Digitaria sanguinalis), purple nutsedge (Cyperus rotundus), redroot pigweed (Amaranthus retroflexus), soybean (Glycine max), surinam grass (Brachiaria decumbens), velvetleaf (Abutilon theophrasti) and wild poinsettia (Euphorbia heterophylla).
(§3) Treated plants and untreated controls were maintained in a greenhouse for approximately 14, to 21 days, after which all treated plants were compared to untreated controls and visually evaluated. Plant response ratings, summarized in Table C, were based upon a 0 to 100 scale where 0 was no effect and 100 was complete control. A dash response (−) means no test result.

[2] = tested on: velvetleaf; assay: Test C postemergence velvetleaf; format: in vivo, Abutilon theophrasti
Procedure, shortened: (§4)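 Postemergence spray; formulation = non-phytotoxic solvent + surfactant; soil 60:40 sandy loam:greenhouse potting mix; greenhouse, ~14–21 d; visual rating vs untreated, 0–100 (100 = complete control).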

[3] = tested on: corn; assay: Test C postemergence corn; format: in vivo, Zea mays
Experimental: as §1, §2, §3

[4] = tested on: redroot pigweed; assay: Test C postemergence redroot pigweed; format: in vivo, Amaranthus retroflexus
Procedure, shortened: as §4

[5] = tested on: fall panicum; assay: Test C postemergence fall panicum; format: in vivo, Panicum dichotomiflorum
Experimental: as §1, §2, §3

[6] = tested on: common ragweed; assay: Test C postemergence common ragweed; format: in vivo, Ambrosia elatior
Procedure, shortened: as §4

[7] = tested on: lambsquarters; assay: Test C postemergence lambsquarters; format: in vivo, Chenopodium album
Procedure, shortened: as §4

[8] = tested on: field bindweed; assay: Test C postemergence field bindweed; format: in vivo, Convolvulus arvensis
Experimental: as §1, §2, §3

[9] = tested on: purple nutsedge; assay: Test C postemergence purple nutsedge; format: in vivo, Cyperus rotundus
Experimental: as §1, §2, §3

[10] = tested on: eastern black nightshade; assay: Test C postemergence eastern black nightshade; format: in vivo, Solanum ptycanthum
Procedure, shortened: as §4

[11] = tested on: arrowleaf sida; assay: Test C postemergence arrowleaf sida; format: in vivo, Sida rhombifolia
Procedure, shortened: as §4

[12] = tested on: johnsongrass; assay: Test C postemergence johnsongrass; format: in vivo, Sorghum halepense
Procedure, shortened: as §4

[13] = tested on: ladysthumb smartweed; assay: Test C postemergence ladysthumb smartweed; format: in vivo, Polygonum persicaria
Experimental: as §1, §2, §3

[14] = tested on: hairy beggarticks; assay: Test C postemergence hairy beggarticks; format: in vivo, Bidens pilosa
Experimental: as §1, §2, §3

CC(C)N(C(=O)n1oc(=O)n(Cc2cccs2)c1=O)c1ccc(F)cc1 [Compound 80]
Plant response rating, Soybean ([1]; Rate 140 g/ha): 5 | Plant response rating, Soybean ([1]; Rate 280 g/ha): 20 | Plant response rating, Soybean ([1]; Rate 560 g/ha): 60 | Plant response rating, Velvetleaf ([2]; Rate 140 g/ha): 5 | Plant response rating, Velvetleaf ([2]; Rate 280 g/ha): 5 | Plant response rating, Velvetleaf ([2]; Rate 560 g/ha): 20 | Plant response rating, Velvetleaf ([2]; Rate 1120 g/ha): 20 | Plant response rating, Corn ([3]; Rate 140 g/ha): 0 | Plant response rating, Corn ([3]; Rate 280 g/ha): 0 | Plant response rating, Corn ([3]; Rate 560 g/ha): 0 | Plant response rating, Corn ([3]; Rate 1120 g/ha): 0 | Plant response rating, Redroot pigweed ([4]; Rate 280 g/ha): 0 | Plant response rating, Redroot pigweed ([4]; Rate 560 g/ha): 50 | Plant response rating, Redroot pigweed ([4]; Rate 1120 g/ha): 80 | Plant response rating Fall panicum ([5]; Rate 140 g/ha): 0 | Plant response rating Fall panicum ([5]; Rate 280 g/ha): 0 | Plant response rating Fall panicum ([5]; Rate 560 g/ha): 0 | Plant response rating Fall panicum ([5]; Rate 1120 g/ha): 10 | Plant response rating Common ragweed ([6]; Rate 140 g/ha): 0 | Plant response rating Common ragweed ([6]; Rate 280 g/ha): 0 | Plant response rating Common ragweed ([6]; Rate 560 g/ha): 5 | Plant response rating Common ragweed ([6]; Rate 1120 g/ha): 5 | Plant response rating, Lambsquarters ([7]; Rate 140 g/ha): 0 | Plant response rating, Lambsquarters ([7]; Rate 280 g/ha): 15 | Plant response rating, Lambsquarters ([7]; Rate 560 g/ha): 20 | Plant response rating, Lambsquarters ([7]; Rate 1120 g/ha): 20 | Plant response rating Field bindweed ([8]; Rate 140 g/ha): 0 | Plant response rating Field bindweed ([8]; Rate 280 g/ha): 0 | Plant response rating Field bindweed ([8]; Rate 560 g/ha): 0 | Plant response rating Field bindweed ([8]; Rate 1120 g/ha): 0 | Plant response rating, Purple nutsedge ([9]; Rate 140 g/ha): 0 | Plant response rating, Purple nutsedge ([9]; Rate 280 g/ha): 0 | Plant response rating, Purple nutsedge ([9]; Rate 560 g/ha): 0 | Plant response rating, Purple nutsedge ([9]; Rate 1120 g/ha): 0 | Plant response rating E. blacknightsh ([10]; Rate 140 g/ha): 0 | Plant response rating E. blacknightsh ([10]; Rate 280 g/ha): 5 | Plant response rating E. blacknightsh ([10]; Rate 560 g/ha): 50 | Plant response rating E. blacknightsh ([10]; Rate 1120 g/ha): 60 | Plant response rating Arrowleaf sida ([11]; Rate 140 g/ha): 0 | Plant response rating Arrowleaf sida ([11]; Rate 280 g/ha): 5 | Plant response rating Arrowleaf sida ([11]; Rate 1120 g/ha): 30 | Plant response rating, Johnsongrass ([12]; Rate 140 g/ha): 0 | Plant response rating, Johnsongrass ([12]; Rate 280 g/ha): 0 | Plant response rating, Johnsongrass ([12]; Rate 560 g/ha): 0 | Plant response rating, Johnsongrass ([12]; Rate 1120 g/ha): 0 | Plant response rating Ladysthumb ([13]; Rate 140 g/ha): 10 | Plant response rating Ladysthumb ([13]; Rate 280 g/ha): 10 | Plant response rating Ladysthumb ([13]; Rate 560 g/ha): 70 | Plant response rating Ladysthumb ([13]; Rate 1120 g/ha): 70 | Plant response rating H. beggarticks ([14]; Rate 140 g/ha): 0 | Plant response rating H. beggarticks ([14]; Rate 560 g/ha): 10 | Plant response rating H. beggarticks ([14]; Rate 1120 g/ha): 10

C=CCn1c(=O)on(C(=O)N(c2ccccc2)C(C)C)c1=O [Compound 93]
Plant response rating, Soybean ([1]; Rate 140 g/ha): 40 | Plant response rating, Soybean ([1]; Rate 280 g/ha): 60 | Plant response rating, Soybean ([1]; Rate 560 g/ha): 80 | Plant response rating, Soybean ([1]; Rate 1120 g/ha): 85 | Plant response rating, Velvetleaf ([2]; Rate 140 g/ha): 0 | Plant response rating, Velvetleaf ([2]; Rate 280 g/ha): 5 | Plant response rating, Velvetleaf ([2]; Rate 560 g/ha): 40 | Plant response rating, Velvetleaf ([2]; Rate 1120 g/ha): 70 | Plant response rating, Corn ([3]; Rate 140 g/ha): 0 | Plant response rating, Corn ([3]; Rate 280 g/ha): 0 | Plant response rating, Corn ([3]; Rate 560 g/ha): 0 | Plant response rating, Corn ([3]; Rate 1120 g/ha): 45 | Plant response rating, Redroot pigweed ([4]; Rate 140 g/ha): 5 | Plant response rating, Redroot pigweed ([4]; Rate 560 g/ha): 10 | Plant response rating, Redroot pigweed ([4]; Rate 1120 g/ha): 85 | Plant response rating Fall panicum ([5]; Rate 140 g/ha): 0 | Plant response rating Fall panicum ([5]; Rate 280 g/ha): 80 | Plant response rating Fall panicum ([5]; Rate 560 g/ha): 90 | Plant response rating Fall panicum ([5]; Rate 1120 g/ha): 90 | Plant response rating Common ragweed ([6]; Rate 140 g/ha): 5 | Plant response rating Common ragweed ([6]; Rate 280 g/ha): 10 | Plant response rating Common ragweed ([6]; Rate 560 g/ha): 10 | Plant response rating Common ragweed ([6]; Rate 1120 g/ha): 20 | Plant response rating, Lambsquarters ([7]; Rate 140 g/ha): 10 | Plant response rating, Lambsquarters ([7]; Rate 280 g/ha): 10 | Plant response rating, Lambsquarters ([7]; Rate 560 g/ha): 10 | Plant response rating, Lambsquarters ([7]; Rate 1120 g/ha): 40 | Plant response rating Field bindweed ([8]; Rate 140 g/ha): 0 | Plant response rating Field bindweed ([8]; Rate 280 g/ha): 0 | Plant response rating Field bindweed ([8]; Rate 560 g/ha): 0 | Plant response rating Field bindweed ([8]; Rate 1120 g/ha): 50 | Plant response rating, Purple nutsedge ([9]; Rate 140 g/ha): 0 | Plant response rating, Purple nutsedge ([9]; Rate 280 g/ha): 0 | Plant response rating, Purple nutsedge ([9]; Rate 560 g/ha): 0 | Plant response rating, Purple nutsedge ([9]; Rate 1120 g/ha): 10 | Plant response rating E. blacknightsh ([10]; Rate 140 g/ha): 10 | Plant response rating E. blacknightsh ([10]; Rate 280 g/ha): 40 | Plant response rating E. blacknightsh ([10]; Rate 1120 g/ha): 85 | Plant response rating Arrowleaf sida ([11]; Rate 280 g/ha): 10 | Plant response rating Arrowleaf sida ([11]; Rate 560 g/ha): 60 | Plant response rating Arrowleaf sida ([11]; Rate 1120 g/ha): 60 | Plant response rating, Johnsongrass ([12]; Rate 140 g/ha): 0 | Plant response rating, Johnsongrass ([12]; Rate 280 g/ha): 5 | Plant response rating, Johnsongrass ([12]; Rate 560 g/ha): 85 | Plant response rating, Johnsongrass ([12]; Rate 1120 g/ha): 90 | Plant response rating Ladysthumb ([13]; Rate 140 g/ha): 0 | Plant response rating Ladysthumb ([13]; Rate 280 g/ha): 0 | Plant response rating Ladysthumb ([13]; Rate 560 g/ha): 80 | Plant response rating H. beggarticks ([14]; Rate 280 g/ha): 0 | Plant response rating H. beggarticks ([14]; Rate 560 g/ha): 5 | Plant response rating H. beggarticks ([14]; Rate 1120 g/ha): 70
